The source made the active and inactive calls. The rule behind the calls is not given here.
What was measured:
Homo sapiens [1] = organism: Homo sapiens; test: Selectivity ratio of Ki for delta opioid receptor (unknown origin) to Ki for kappa opioid receptor (unknown origin)
Homo sapiens [2] = organism: Homo sapiens; test: Selectivity ratio of Ki for delta opioid receptor (unknown origin) to Ki for mu opioid receptor (unknown origin)
Homo sapiens [3] = organism: Homo sapiens; test: Selectivity ratio of Ki for kappa opioid receptor (unknown origin) to Ki for mu opioid receptor (unknown origin)
Mu-type opioid receptor [4] = molecular target: T1, Mu-type opioid receptor (Homo sapiens, UniProt P35372); test: Agonist activity at mu opioid receptor (unknown origin) expressed in CHO cell membranes assessed as stimulation of [35S]-GTPgammaS binding after 1.5 hrs relative to DAMGO; format: functional
T1 sequence (P35372 whole entry): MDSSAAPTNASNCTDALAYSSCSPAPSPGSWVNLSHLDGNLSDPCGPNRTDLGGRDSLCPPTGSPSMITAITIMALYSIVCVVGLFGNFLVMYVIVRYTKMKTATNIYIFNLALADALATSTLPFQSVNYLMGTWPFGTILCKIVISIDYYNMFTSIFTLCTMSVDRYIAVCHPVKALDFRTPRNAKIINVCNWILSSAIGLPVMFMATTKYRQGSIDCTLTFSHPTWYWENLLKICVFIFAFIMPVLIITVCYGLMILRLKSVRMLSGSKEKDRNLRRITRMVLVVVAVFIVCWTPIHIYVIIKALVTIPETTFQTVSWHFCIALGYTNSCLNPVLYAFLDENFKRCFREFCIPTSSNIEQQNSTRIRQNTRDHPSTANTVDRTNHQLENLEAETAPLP

Mus musculus [5] = test: Induction of withdrawal symptoms in chronic morphine-exposed Swiss-Webster mouse assessed as decrease in escape jumps at 1 mg/kg, sc measured over 20 mins; format: organism-based; design: dose 1 mg/kg, route subcutaneous; details: in vivo
Mus musculus [6] = test: Induction of withdrawal symptoms in chronic morphine-exposed Swiss-Webster mouse assessed as decrease in wet dog shakes at 1 mg/kg, sc measured over 20 mins; format: organism-based; design: dose 1 mg/kg, route subcutaneous; details: in vivo
Homo sapiens [7] = organism: Homo sapiens; test: Selectivity ratio of Ki for mu opioid receptor (unknown origin) to Ki for kappa opioid receptor (unknown origin)
[8] = molecular target: T2, Kappa-type opioid receptor (Homo sapiens, UniProt P41145); test: Partial agonist activity at human kappa opioid receptor expressed in CHO cells assessed as stimulation of [35S]-GTPgammaS binding after 3 hrs by liquid scintillation counting analysis; format: functional, cell-based
T2 sequence (P41145 whole entry): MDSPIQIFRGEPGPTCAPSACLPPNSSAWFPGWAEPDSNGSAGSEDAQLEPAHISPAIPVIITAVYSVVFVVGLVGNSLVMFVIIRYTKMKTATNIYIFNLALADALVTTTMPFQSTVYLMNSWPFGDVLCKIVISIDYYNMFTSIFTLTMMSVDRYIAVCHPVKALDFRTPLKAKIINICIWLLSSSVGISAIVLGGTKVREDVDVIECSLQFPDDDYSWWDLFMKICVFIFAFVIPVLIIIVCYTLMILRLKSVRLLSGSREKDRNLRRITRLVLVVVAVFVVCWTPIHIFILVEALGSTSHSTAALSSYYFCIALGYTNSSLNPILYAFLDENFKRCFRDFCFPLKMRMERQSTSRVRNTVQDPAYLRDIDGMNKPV

Homo sapiens [9] = organism: Homo sapiens; test: Selectivity ratio of Ki for human delta opioid receptor to Ki for human mu opioid receptor
Homo sapiens [10] = organism: Homo sapiens; test: Selectivity ratio of Ki for human kappa opioid receptor to Ki for human mu opioid receptor
Mus musculus [11] = test: Induction of withdrawal symptoms in chronic morphine-exposed Swiss-Webster mouse assessed as decrease in escape jumps at 3 to 10 mg/kg, sc measured over 20 mins; format: organism-based; design: dose 3-10 mg/kg, route subcutaneous; details: in vivo
[12] = molecular target: T2, Kappa-type opioid receptor; test: Agonist activity at kappa opioid receptor (unknown origin) expressed in CHO cell membranes assessed as stimulation of [35S]-GTPgammaS binding after 1.5 hrs relative to U50488; format: functional
Mus musculus [13] = test: Induction of withdrawal symptoms in chronic morphine-exposed Swiss-Webster mouse assessed as decrease in wet dog shakes at 3 to 30 mg/kg, sc measured over 20 mins; format: organism-based; design: dose 3-30 mg/kg, route subcutaneous; details: in vivo
Mu-type opioid receptor [14] = molecular target: T1, Mu-type opioid receptor; test: Agonist activity at mu opioid receptor (unknown origin) expressed in CHO cell membranes assessed as stimulation of [35S]-GTPgammaS binding at 10 uM after 1.5 hrs relative to DAMGO; format: functional
[15] = molecular target: Delta-type opioid receptor (Homo sapiens) (UniProt P41143); test: Agonist activity at delta opioid receptor (unknown origin) expressed in CHO cell membranes assessed as stimulation of [35S]-GTPgammaS binding after 1.5 hrs relative to SNC80; format: functional
Sequence of Delta-type opioid receptor (Homo sapiens) (P41143 whole entry): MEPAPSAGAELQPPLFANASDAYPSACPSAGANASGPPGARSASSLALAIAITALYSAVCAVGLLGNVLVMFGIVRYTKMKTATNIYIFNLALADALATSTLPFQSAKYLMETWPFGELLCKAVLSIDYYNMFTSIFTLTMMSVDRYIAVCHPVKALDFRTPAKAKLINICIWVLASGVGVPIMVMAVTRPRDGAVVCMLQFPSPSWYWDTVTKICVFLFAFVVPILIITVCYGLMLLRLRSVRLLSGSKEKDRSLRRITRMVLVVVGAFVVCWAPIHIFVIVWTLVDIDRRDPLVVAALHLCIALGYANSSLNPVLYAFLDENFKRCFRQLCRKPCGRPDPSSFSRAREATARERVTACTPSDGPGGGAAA

Mus musculus [16] = test: Reduction of morphine-induced antinociceptive activity in sc dosed Swiss-Webster mouse assessed as dose required to antagonize morphine effect by warm-water tail-flick assay; format: functional
Mus musculus [17] = test: Antinociceptive activity in Swiss-Webster mouse up to 30 mg/kg, sc by warm-water tail-flick assay; format: functional, organism-based; design: dose 30 mg/kg
Mus musculus [18] = test: Induction of withdrawal symptoms in chronic morphine-exposed Swiss-Webster mouse assessed as decrease in escape jumps at 30 mg/kg, sc measured over 20 mins; format: organism-based; design: dose 30 mg/kg, route subcutaneous; details: in vivo
Mus musculus [19] = test: Induction of withdrawal symptoms in chronic morphine-exposed Swiss-Webster mouse assessed as decrease in escape jumps at 10 to 30 mg/kg, sc measured over 20 mins; format: organism-based; design: dose 10-30 mg/kg, route subcutaneous; details: in vivo
Mus musculus [20] = test: Induction of withdrawal symptoms in chronic morphine-exposed Swiss-Webster mouse assessed as decrease in wet dog shakes at 10 to 30 mg/kg, sc measured over 20 mins; format: organism-based; design: dose 10-30 mg/kg, route subcutaneous; details: in vivo
Mus musculus [21] = test: Induction of withdrawal symptoms in chronic morphine-exposed Swiss-Webster mouse assessed as decrease in wet dog shakes at 3 mg/kg, sc measured over 20 mins; format: organism-based; design: dose 3 mg/kg, route subcutaneous; details: in vivo

Compound	Ratio Ki (Homo sapiens [1])	Ratio Ki (Homo sapiens [2])	Ratio Ki (Homo sapiens [3])	Emax (Mu-type opioid receptor [4]) [%]	Ratio Ki (Homo sapiens [7])	other results
O=C(O[C@@]12CCC(=O)[C@@H]3Oc4c(O)ccc5c4[C@@]31CCN(CC1CC1)[C@@H]2C5)c1cnc2ccccc2c1	5.5	304	55	22	–	–
COc1cccc2c1[C@]13CCN(CC4CC4)[C@H](C2)[C@]1(OC)CCC(=O)C3 [CYPRODIME]	–	39	10	–	–	–
O=C(O[C@@]12CCC(=O)[C@@H]3Oc4c(O)ccc5c4[C@@]31CCN(CC1CC1)[C@@H]2C5)c1ccncc1	8.2	73	8.8	–	–	–
O=C1CC[C@@]2(O)[C@H]3Cc4ccc(O)c5c4[C@@]2(CCN3CC2CC2)[C@H]1O5 [NALTREXONE]	–	–	–	–	–	Activity (Mus musculus [5]): Toxic; Activity (Mus musculus [6]): Toxic
O=C(CCc1ccccn1)N[C@@]12CCC(=O)[C@@H]3Oc4c(O)ccc5c4[C@@]31CCN(CC1CC1)[C@@H]2C5	54	29	–	12.7	1.9	–
Oc1cccc2c1O[C@H]1CCC[C@H]3CN(CC4CC4)CC[C@@]231	–	–	–	–	–	EC50 [8]: 2.7 nM
O=C(N[C@@]12CCC(=O)[C@@H]3Oc4c(O)ccc5c4[C@@]31CCN(CC1CC1)[C@@H]2C5)c1ccccc1	477	13	–	5.8	36	–
O=C(Cc1ccccn1)N[C@@]12CCC(=O)[C@@H]3Oc4c(O)ccc5c4[C@@]31CCN(CC1CC1)[C@@H]2C5	21	14	–	78	1.5	–
O=C(O[C@@]12CCC(=O)[C@@H]3Oc4c(O)ccc5c4[C@@]31CCN(CC1CC1)[C@@H]2C5)c1ccccn1	4.6	838	182	–	–	–
O=C(N[C@@]12CCC(=O)[C@@H]3Oc4c(O)ccc5c4[C@@]31CCN(CC1CC1)[C@@H]2C5)c1ccc2ccccc2c1	32	1.7	–	16.5	19	–
O=C(O[C@@]12CCC(=O)[C@@H]3Oc4c(O)ccc5c4[C@@]31CCN(CC1CC1)[C@@H]2C5)c1ccc2ccccc2c1	19	4	0.21	–	–	–
O=C(N[C@@]12CCC(=O)[C@@H]3Oc4c(O)ccc5c4[C@@]31CCN(CC1CC1)[C@@H]2C5)c1cnc2ccccc2c1	11	1.3	–	15.8	8.7	–
O=C(N[C@@]12CCC(=O)[C@@H]3Oc4c(O)ccc5c4[C@@]31CCN(CC1CC1)[C@@H]2C5)c1ccc2ccccc2n1	58	1.7	–	34.4	35	–
Cc1ccc(/C=C/C(=O)O[C@@]23CCC(=O)[C@@H]4Oc5c(O)ccc6c5[C@@]42CCN(CC2CC2)[C@@H]3C6)cc1	–	–	–	–	–	Ratio Ki (Homo sapiens [9]): 31; Ratio Ki (Homo sapiens [10]): 15
Cc1ccc(/C=C/C(=O)N[C@@]23CCC(=O)[C@@H]4Oc5c(O)ccc6c5[C@@]42CCN(CC2CC2)[C@@H]3C6)cc1	–	–	–	–	–	Ratio Ki (Homo sapiens [9]): 1; Ratio Ki (Homo sapiens [10]): 3
O=C(O[C@@]12CCC(=O)[C@@H]3Oc4c(O)ccc5c4[C@@]31CCN(CC1CC1)[C@@H]2C5)c1ccccc1	> 17	–	4.7	–	–	–
O=C(CNC(=O)c1ccccn1)N[C@@]12CCC(=O)[C@@H]3Oc4c(O)ccc5c4[C@@]31CCN(CC1CC1)[C@@H]2C5	2.6	1.2	–	11.8	2.1	–
Cl.O=C(N[C@@]12CCC(=O)[C@@H]3Oc4c(O)ccc5c4[C@@]31CCN(CC1CC1)[C@@H]2C5)c1cc2ccccc2cn1	93	7.2	–	–	13	Activity (Mus musculus [11]): Non-toxic; Emax [12]: 16.8%; Activity (Mus musculus [13]): Toxic; Emax (Mu-type opioid receptor [14]): 2.8%; Emax [15]: 23.8%; Activity (Mus musculus [16]): 0.87 mg/kg; Activity (Mus musculus [17]): inactive; Activity (Mus musculus [18]): Toxic
O=C(N[C@@]12CCC(=O)[C@@H]3Oc4c(O)ccc5c4[C@@]31CCN(CC1CC1)[C@@H]2C5)c1ccncc1	33	13	–	7.7	2.5	–
C=CCN1CC[C@]23c4c5ccc(O)c4O[C@H]2C(=O)CC[C@@]3(O)[C@H]1C5 [NALOXONE]	–	–	–	–	–	Activity (Mus musculus [5]): Toxic; Activity (Mus musculus [6]): Toxic
O=C(O[C@@]12CCC(=O)[C@@H]3Oc4c(O)ccc5c4[C@@]31CCN(CC1CC1)[C@@H]2C5)c1ccc2ccccc2n1	0.34	16	47	–	–	–
O=C(O[C@@]12CCC(=O)[C@@H]3Oc4c(O)ccc5c4[C@@]31CCN(CC1CC1)[C@@H]2C5)c1cccnc1	3.6	107	30	–	–	–
Cl.O=C(N[C@@]12CCC(=O)[C@@H]3Oc4c(O)ccc5c4[C@@]31CCN(CC1CC1)[C@@H]2C5)c1cccnc1	249	53	–	–	4.7	Emax [12]: 35.3%; Emax (Mu-type opioid receptor [14]): 5.1%; Emax [15]: 10.3%; Activity (Mus musculus [16]): 0.55 mg/kg; Activity (Mus musculus [19]): Toxic; Activity (Mus musculus [17]): inactive; Activity (Mus musculus [20]): Toxic
Cl.O=C(N[C@@]12CCC(=O)[C@@H]3Oc4c(O)ccc5c4[C@@]31CCN(CC1CC1)[C@@H]2C5)c1ccccn1	263	63	–	–	4.2	Activity (Mus musculus [11]): Non-toxic; Emax [12]: 24.9%; Emax (Mu-type opioid receptor [14]): 0.9%; Emax [15]: 8.6%; Activity (Mus musculus [16]): 0.25 mg/kg; Activity (Mus musculus [17]): inactive; Activity (Mus musculus [21]): Non-toxic; Activity (Mus musculus [18]): Toxic; Activity (Mus musculus [20]): Toxic

Source: ChEMBL document CHEMBL3085727 (J Med Chem, 2013)
